Assay results: patent US20220251109A1, “OXAAZAQUINAZOLINE-7(8H)-KETONE COMPOUND, PREPARATION METHOD THEREFOR AND PHARMACEUTICAL APPLICATION THEREOF” (GENFLEET THERAPEUTICS (SHANGHAI) INC., priority 2019, published 2022)

Columns and labels:
Type in all cases: cell-based, human
[1] = test system: A549 cells (Kras G12S mutation); assay: Cell proliferation inhibition experiment, 3D model, CellTiter-Glo (A549); conditions: A549, 3D sphere plate, 5 days, 2% FBS
Procedure, shortened: (§1)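 NCI-H358 (800 cells/well) and A549 (400 cells/well) were grown as overnight 3D spheroids in 2% FBS medium, then exposed 5 days to 3.16-fold compound dilutions (0.1% DMSO). Viability was read by CellTiter-Glo luminescence; IC50 came from a four-parameter fit of inhibition normalised to DMSO and medium blanks.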

[2] = test system: NCI-H358 cells (Kras G12C mutation); assay: Cell proliferation inhibition experiment, 3D model, CellTiter-Glo (NCI-H358); conditions: NCI-H358, 3D sphere plate, 5 days, 2% FBS
Procedure, shortened: as §1

[3] = test system: p-ERK in MIA PaCa2 cells (Kras G12C mutation); assay: Cell p-ERK detection experiment (HTRF) in MIA PaCa2 cells; conditions: compound 2 hours
Description: MIA PaCa2 was a human pancreatic cancer cell line with Kras G12C mutation, cultured in 10% FBS+2.5% Horse serum DMEM medium. The cells in the logarithmic growth phase were taken, digested with enzyme EDTA, collected, counted and 2.5E4 cells were seeded in a 96-well cell culture plate, cultured overnight. DMSO was used to prepare 1000× compound 3.16-fold gradient concentration stock solution, and medium was used to dilute 200-fold to 5× compound stock solution. On the second day after cell seeding, 5× compound stock solution was added to each cell culture well, the final concentration was 1×, and DMSO content was 0.1%. DMSO was used as an experimental control (control). After the compound was added and cultured for two hours, the remaining medium was removed. 50 ul cell lysis buffer was added to each well, mixed and incubated for 30 minutes, then 16 ul of the mixture was transferred to a 96-well plate with a non-transparent white bottom, and 16 ul cell lysis buffer was added to blank wells. After the completion of the transfer, 4 ul p-ERK HTRF antibody mixture was added to each well, incubated for 4 hours and the fluorescence value was read. The compound inhibition rate IR (%)=(RLU control-RLU compound)/(RLU control-RLU blank)×100% was calculated, Prism 8 four-parameter method was used to fit the compound's gradient dilution concentration and the corresponding cell proliferation inhibition rate, and the IC50 value was calculate.

[4] = test system: MIA PaCa-2 cells (Kras G12C mutation); assay: Cell proliferation inhibition experiment, 3D model, CellTiter-Glo (MIA PaCa-2); conditions: Homo sapiens, MIA PaCa-2, 120 h, MIA PaCa-2, 3D sphere plate, 5 days; read-out: MIA-PaCa2 IC50
Procedure, shortened: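 3D spheroid model: 200 MIA PaCa-2 cells per well cultured overnight, then treated with a 3.16-fold compound dilution series (0.1% DMSO) for 5 days. Viability read by CellTiter-Glo luminescence. Inhibition rate normalised to DMSO and medium-blank controls; IC50 from four-parameter fit.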

| SMILES | IC50 ([1]; Homo sapiens, A549, 120 h) | IC50 ([2]; Homo sapiens, NCI-H358, 120 h) | IC50 ([3]; Homo sapiens, MIA PaCa-2, 2 h) | IC50 [4] | IC50 [2] | IC50 [3] | IC50 [1] |
| --- | --- | --- | --- | --- | --- | --- | --- |
| C=CC(=O)N1CCN2c3nc(=O)n(-c4c(C)ccnc4C(C)C)c4nc(-c5ccccc5C(F)(F)F)c(Cl)c(c34)OC[C@@H]2C1 [Compound Z66] | > 10 µM | 0.003 µM | 0.039 µM | 0.007 µM | – | – | – |
| C=CC(=O)N1CCN2c3nc(=O)n(-c4c(C)ccnc4C(C)C)c4nc(-c5c(F)cccc5Cl)c(Cl)c(c34)OC[C@@H]2C1 [Compound Z67] | > 10 µM | 0.003 µM | 0.021 µM | 0.006 µM | – | – | – |
| C=CC(=O)N1CCN2c3nc(=O)n(-c4c(C)ccnc4C(C)C)c4nc(-c5c(O)cccc5F)c(F)c(c34)OC[C@H]2C1 [Compound Z73] | > 10 µM | – | – | 0.003 µM | 0.002 µM | 0.022 µM | – |
| C=CC(=O)N1CCN2c3nc(=O)n(-c4c(C)ccnc4C(C)C)c4nc(-c5ccccc5Cl)c(F)c(c34)OC[C@H]2C1 [Compound Z79] | > 10 µM | 0.004 µM | 0.045 µM | 0.006 µM | – | – | – |
| C=CC(=O)N1CCN2c3nc(=O)n(-c4c(C)ccnc4C(C)C)c4nc(-c5ccccc5F)c(F)c(c34)OC[C@@H]2C1 [Compound Z84] | > 10 µM | 0.013 µM | 0.105 µM | 0.022 µM | – | – | – |
| C=CC(=O)N1CCN2c3nc(=O)n(-c4c(C)ccnc4C(C)C)c4nc(-c5c(O)cccc5F)c(F)c(c34)OC[C@@H]2C1 [Compound Z85] | 18.7 µM | 0.003 µM | 0.054 µM | 0.006 µM | – | – | – |
| C=CC(=O)N1CCN2c3nc(=O)n(-c4c(C)ccnc4C(C)C)c4nc(-c5c(C)ccc6[nH]ncc56)c(Cl)c(c34)OC[C@H]2C1 [Compound Z86] | > 10 µM | 0.013 µM | 0.101 µM | 0.024 µM | – | – | – |
| C=CC(=O)N1CCN2c3nc(=O)n(-c4c(C(C)C)ccnc4C)c4nc(-c5c(O)cccc5F)c(F)c(c34)OC[C@H]2C1 [Compound Z92] | > 10 µM | 0.003 µM | 0.025 µM | 0.002 µM | – | – | – |
| C=CC(=O)N1CCN2c3nc(=O)n(-c4c(C5CC5)ncnc4C4CC4)c4nc(-c5ccccc5F)c(Cl)c(c34)OC[C@H]2C1 [Compound Z93] | 12.8 µM | 0.001 µM | 0.009 µM | 0.002 µM | – | – | – |
| C=CC(=O)N1CCN2c3nc(=O)n(-c4c(C5CC5)ncnc4C4CC4)c4nc(-c5c(O)cccc5F)c(Cl)c(c34)OC[C@H]2C1 [Compound Z94] | > 10 µM | 0.002 µM | 0.007 µM | 0.002 µM | – | – | – |
| C=CC(=O)N1CCN2c3nc(=O)n(-c4c(C(C)C)ncnc4C(C)C)c4nc(-c5c(O)cccc5F)c(Cl)c(c34)OC[C@H]2C1 [Compound Z97] | 26.8 µM | 0.001 µM | 0.007 µM | 0.001 µM | – | – | – |
| C=CC(=O)N1CCN2c3nc(=O)n(-c4c(C5CC5)ncnc4C4CC4)c4nc(-c5c(O)cccc5F)c(F)c(c34)OC[C@H]2C1 [Compound Z99] | > 10 µM | 0.002 µM | 0.012 µM | 0.003 µM | – | – | – |
| C=CC(=O)N1CCN2c3nc(=O)n(-c4nccnc4C(C)C)c4nc(-c5ccccc5F)c(Cl)c(c34)OC[C@H]2C1 [Compound Z104-1] | 11.3 µM | – | – | 0.012 µM | 0.008 µM | 0.014 µM | – |
| C=CC(=O)N1CCN2c3nc(=O)n(-c4nccnc4C(C)C)c4nc(-c5c(O)cccc5F)c(Cl)c(c34)OC[C@H]2C1 [Compound Z105-2] | – | – | – | 0.011 µM | 0.005 µM | 0.02 µM | > 30 µM |
| C=CC(=O)N1CCN2c3nc(=O)n(-c4nccnc4C(C)C)c4nc(-c5c(O)cccc5F)c(F)c(c34)OC[C@H]2C1 [Compound Z107-2] | – | – | – | 0.019 µM | 0.007 µM | 0.035 µM | > 30 µM |
| C=CC(=O)N1CCN2c3nc(=O)n(-c4c(C)ncnc4C4CC4)c4nc(-c5c(O)cccc5F)c(F)c(c34)OC[C@H]2C1 [Compound Z108] | > 30 µM | 0.009 µM | 0.049 µM | 0.017 µM | – | – | – |
| C=CC(=O)N1CCN2c3nc(=O)n(-c4c(OC)ncnc4C(C)C)c4nc(-c5ccccc5F)c(Cl)c(c34)OC[C@H]2C1 [Compound Z110] | 14.7 µM | 0.004 µM | 0.043 µM | 0.011 µM | – | – | – |
| C=CC(=O)N1CCN2c3nc(=O)n(-c4c(OC)ncnc4C(C)C)c4nc(-c5c(O)cccc5F)c(F)c(c34)OC[C@H]2C1 [Compound Z111] | > 30 µM | 0.004 µM | 0.047 µM | 0.007 µM | – | – | – |
| C=CC(=O)N1CCN2c3nc(=O)n(-c4c(Cl)cncc4C(C)C)c4nc(-c5ccccc5F)c(Cl)c(c34)OC[C@H]2C1 [Compound Z114] | 4.63 µM | 0.008 µM | 0.039 µM | 0.074 µM | – | – | – |
| C=CC(=O)N1CCN2c3nc(=O)n(-c4c(C)nc(OC)nc4C(C)C)c4nc(-c5c(O)cccc5F)c(F)c(c34)OC[C@H]2C1 [Compound Z115] | 18.7 µM | 0.005 µM | 0.031 µM | 0.021 µM | – | – | – |
| C=CC(=O)N1CCN2c3nc(=O)n(-c4c(C)nc(OC)nc4C(C)C)c4nc(-c5ccccc5F)c(Cl)c(c34)OC[C@H]2C1 [Compound Z116] | 8.89 µM | 0.003 µM | 0.026 µM | 0.026 µM | – | – | – |
| C=CC(=O)N1CCN2c3nc(=O)n(-c4c(C)c(Cl)nn4C(C)C)c4nc(-c5ccccc5F)c(Cl)c(c34)OC[C@H]2C1 [Compound Z119] | 7.9 µM | 0.012 µM | 0.059 µM | 0.113 µM | – | – | – |
| C=CC(=O)N1CCN2c3nc(=O)n(-c4c(C#N)cnn4C(C)(C)C)c4nc(-c5c(O)cccc5F)c(Cl)c(c34)OC[C@H]2C1 [Compound Z120] | 27.7 µM | 0.017 µM | 0.193 µM | 0.085 µM | – | – | – |
| C=CC(=O)N1CCN2c3nc(=O)n(-c4c(C)cc(=O)n(C)c4C(C)C)c4nc(-c5ccccc5F)c(Cl)c(c34)OC[C@H]2C1 [Compound Z121] | > 10 µM | 0.003 µM | 0.016 µM | 0.005 µM | – | – | – |
| C=CC(=O)N1CCN2c3nc(=O)n(-c4c(CO)ccnc4C(C)C)c4nc(-c5ccccc5F)c(Cl)c(c34)OC[C@H]2C1 [Compound Z122] | > 30 µM | 0.007 µM | 0.101 µM | 0.011 µM | – | – | – |
